pIC50: −log10 of the molar value. Converted amounts (≈) assume the structure as drawn. Blank lines part the entries; values can stand above or below the compound they belong to.
Key:
[1] = system: rat hepatocytes; experiment: Hepatocyte assay for determination of metabolic stability; conditions: after incubation with rat hepatocytes
Procedure: Seven samples from the incubation solution are taken for the LC-MS analysis within a fixed time pattern, in order to determine the half-life (i.e. the degradation) of the particular compound. This half life is used to calculate various “Clearance” parameters (CL) and “Fmax” values (see below).
The CL and Fmax values are a measure of the phase 1 and phase 2 metabolism of the compounds in the hepatocytes. In order to minimize the influence of the organic solvent on the enzymes in the incubation batches, the concentration thereof is generally limited to 1% (acetonitrile) or 0.1% (DMSO).
For all species and breeds, a hepatocyte cell count in the liver of 1.1*10^8 cells/g of liver is expected.
The parameters calculated and the meanings thereof are: • Fmax well-stirred [%] maximum possible bioavailability after oral administration • Calculation: (1-CLblood well-stirred/QH)*100 • CLblood well-stirred [L/(h*kg)] calculated blood clearance (well-stirred model) • Calculation: (QH*CLintrinsic)/(QH+CL′intrinsic) • CL′intrinsic[ml/(min*kg)] maximum ability of the liver (of the hepatocytes) to metabolize a compound (assuming that the liver blood flow is not rate-limiting) • Calculation: CLintrinsic, apparent* species-specific hepatocyte count [1.1* 10^8/g liver]*species-specific liver weight [g/kg] • CL′intrinsic, apparent[ml/(min*mg)] normalizes the elimination constant by dividing it by the hepatocyte cell count x used (x*10^6/ml) • Calculation: kcl[1/min]/(cell count [x*10^6]/incubation volume [ml]) • (QH=species-specific liver blood flow).

[2] = target: T1, human macrophage elastase (HME/hMMP-12) (Homo sapiens, UniProt P39900); experiment: In vitro HME inhibition test (standard or high-sensitivity); format: biochemical; conditions: standard or high-sensitivity HME inhibition test; read-out: HME/hMMP-12 IC50
T1 construct: 0.5 nM HME; purchased R&D Systems 917-MP
Procedure: The potency of the compounds according to the invention with respect to HME (MMP-12) is determined in an in vitro inhibition test. The HME-mediated amidolytic cleavage of a suitable peptide substrate leads to an increase in fluorescent light therein. The signal intensity of the fluorescent light is directly proportional to the enzyme activity. The active concentration of a test compound at which half the enzyme is inhibited (50% signal intensity of the fluorescent light) is reported as the IC50 value.
In a 384 hole microtiter plate, in a total test volume of 41 μl, the test buffer (0.1 M HEPES pH 7.4, 0.15 M NaCl, 0.03 M CaCl2, 0.004 mM ZnCl2, 0.02 M EDTA, 0.005% Brij®), the enzyme (0.5 nM HME; from R&D Systems, 917-MP, autocatalytic activation according to the manufacturer's instructions) and the intramolecularly quenched substrate [5 μM Mca-Pro-Leu-Gly-Leu-Glu-Glu-Ala-Dap(Dnp)-NH2; Bachem, M-2670] are incubated in the absence and presence of the test substance (as a solution in DMSO) at 37° C. for two hours. The fluorescence intensity of the test mixtures is measured (excitation […], emission 393 nm). The IC50 values are ascertained by plotting the fluorescent light intensity against the active ingredient concentration.
In this case, an enzyme concentration ten times lower is used (final concentration, for example, 0.05 nM) in order to achieve an elevated test sensitivity. The incubation period chosen for the test is correspondingly longer (for example 16 hours).

[3] = Determination of solubility in PBS buffer pH 6.5; conditions: PBS buffer pH 6.5, 1% DMSO, room temperature; for Solubility: 24 h; for solubility at 24 h: PBS buffer, pH 6.5, aqueous buffer, kinetic from dmso stock
Procedure: The test substance is dissolved in DMSO. An aliquot is taken from this solution and introduced into PBS buffer pH 6.5 (DMSO content: 1%). This solution/suspension is agitated at room temperature for 24 h. After ultracentrifugation at 114000 g for 30 min, the supernatant is removed, diluted with acetonitrile/water 8:2 and analysed by LC-MSMS. Quantification is effected by means of a five-point calibration curve of the test compound in DMSO.

T1 sequence (P39900 106-470): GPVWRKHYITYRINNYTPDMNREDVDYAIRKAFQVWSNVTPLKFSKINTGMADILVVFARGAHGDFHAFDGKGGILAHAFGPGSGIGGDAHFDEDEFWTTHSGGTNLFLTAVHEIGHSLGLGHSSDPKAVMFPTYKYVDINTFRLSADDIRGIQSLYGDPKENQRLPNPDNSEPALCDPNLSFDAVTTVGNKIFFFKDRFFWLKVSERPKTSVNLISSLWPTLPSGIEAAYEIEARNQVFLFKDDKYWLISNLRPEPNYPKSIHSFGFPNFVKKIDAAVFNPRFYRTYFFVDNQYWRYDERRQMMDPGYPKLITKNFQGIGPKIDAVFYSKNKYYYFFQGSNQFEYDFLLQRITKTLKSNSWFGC

Compound: O=C(O)[C@@H]1[C@@H](Cn2nnc3ccccc3c2=O)CC[C@H]1C(=O)c1ccc(OCCC2CCOCC2)cc1 (racemic) [Example 5, (+)-(1RS,2SR,5RS)-2-[(4-Oxo-1,2,3-benzotriazin-3(4H)-yl)methyl]-5-{4-[2-(tetrahydro-2H-pyran-4-yl)ethoxy]benzoyl}cyclopentanecarboxylic acid]
CLblood (calculated blood clearance, well-stirred) [1]: 14.5 mL/min/kg | Fmax (maximum possible bioavailability after oral administration, well-stirred) [1]: 79.2%

Compound: O=C(O)[C@H]1[C@H](Cn2nnc3ccc(C(F)(F)F)cc3c2=O)CC[C@@H]1C(=O)c1ccc(SCC2CCOCC2)cc1 (racemic) [Example 13, (+/−)-(1RS,2SR,5RS)-2-{[4-Oxo-6-(trifluoromethyl)-1,2,3-benzotriazin-3 (4H)-yl]methyl}-5-{4-[(tetrahydro-2H-pyran-4-ylmethyl)sulphanyl]benzoyl}cyclopentanecarboxylic acid]
pIC50 [2]: 9.32

Compound: Cc1ccc2nnn(C[C@@H]3CC[C@H](C(=O)c4ccc(OCC5CCOCC5)cc4)[C@H]3C(=O)O)c(=O)c2c1 (racemic) [Example 16, (+/−)-(1RS,2SR,5RS)-2-[(6-Methyl-4-oxo-1,2,3-benzotriazin-3(4H)-yl)methyl]-5-[4-(tetrahydro-2H-pyran-4-ylmethoxy)benzoyl]cyclopentanecarboxylic acid]
pIC50 [2]: 9.77

Compound: Cc1ccc2nnn(C[C@H]3CC[C@@H](C(=O)c4ccc(OCC5CCOCC5)cc4)[C@@H]3C(=O)O)c(=O)c2c1 (racemic) [Example 18, (−)-(1RS,2SR,5RS)-2-[(6-Methyl-4-oxo-1,2,3-benzotriazin-3(4H)-yl)methyl]-5-[4-(tetrahydro-2H-pyran-4-ylmethoxy)benzoyl]cyclopentanecarboxylic acid]
Solubility [3]: 330 µg/mL (≈ 653 µM)

Compound: Cc1ccc2nnn(C[C@H]3CC[C@@H](C(=O)c4ccc(OCC5CCOCC5)cc4)[C@@H]3C(=O)O)c(=O)c2c1 (single isomer, unassigned) [Example 17, (+)-(1RS,2SR,5RS)-2-[(6-Methyl-4-oxo-1,2,3-benzotriazin-3(4H)-yl)methyl]-5-[4-(tetrahydro-2H-pyran-4-ylmethoxy)benzoyl]cyclopentanecarboxylic acid]
pIC50 [2]: 10.52 | solubility at 24 h [3]: 250 µg/mL (≈ 494 µM)

Compound: Cc1ccc2nnn(C[C@H]3CC[C@@H](C(=O)c4ccc(OCC5CCOCC5)cc4)[C@@H]3C(=O)O)c(=O)c2c1 (single isomer, unassigned) [Example 18, (−)-(1RS,2SR,5RS)-2-[(6-Methyl-4-oxo-1,2,3-benzotriazin-3(4H)-yl)methyl]-5-[4-(tetrahydro-2H-pyran-4-ylmethoxy)benzoyl]cyclopentanecarboxylic acid]
pIC50 [2]: 8.48

Compound: O=C(O)[C@@H]1[C@@H](Cn2nnc3ccccc3c2=O)CC[C@H]1C(=O)c1ccc(OCCC2CCOCC2)cc1 (stereo in doubt) [Example 6, (−)-(1RS,2SR,5RS)-2-[(4-Oxo-1,2,3-benzotriazin-3(4H)-yl)methyl]-5-{4-[2-(tetrahydro-2H-pyran-4-yl)ethoxy]benzoyl}cyclopentanecarboxylic acid]
pIC50 [2]: 7.10 | Solubility [3]: 354.9 µg/mL (≈ 702 µM)

Compound: (−)-(1RS,2SR,5RS)-2-{[4-Oxo-6-(trifluoromethyl)-1,2,3-benzotriazin-3(4H)-yl]methyl}-5-[4-(tetra-hydro-2H-pyran-4-ylmethoxy)benzoyl]cyclopentanecarboxylic acid [Example 9]
pIC50 [2]: 7.38

The next lines start with the values.

CLblood (calculated blood clearance, well-stirred) [1]: 5 mL/min/kg | Fmax (maximum possible bioavailability after oral administration, well-stirred) [1]: 92.9%
Compound: O=C(O)[C@@H]1[C@@H](Cn2nnc3ccc(C(F)(F)F)cc3c2=O)CC[C@H]1C(=O)c1ccc(OCCC2CCOCC2)cc1 (racemic) [Example 11, (+)-(1RS,2SR,5RS)-2-{[4-Oxo-6-(trifluoromethyl)-1,2,3-benzotriazin-3(4H)-yl]methyl}-5-{4-[2-(tetrahydro-2H-pyran-4-yl)ethoxy]benzoyl}cyclopentanecarboxylic acid]

Solubility [3]: 100 µg/mL (≈ 174 µM) | CLblood (calculated blood clearance, well-stirred) [1]: 2.67 mL/min/kg | Fmax (maximum possible bioavailability after oral administration, well-stirred) [1]: 96.1%
Compound: O=C(O)[C@@H]1[C@@H](Cn2nnc3ccc(C(F)(F)F)cc3c2=O)CC[C@H]1C(=O)c1ccc(SCC2CCOCC2)cc1 (racemic) [Example 15, (+)-(1RS,2SR,5RS)-2-{[4-Oxo-6-(trifluoromethyl)-1,2,3-benzotriazin-3(4H)-yl]methyl}-5-{4-[(tetrahydro-2H-pyran-4-ylmethyl)sulphanyl]benzoyl}cyclopentanecarboxylic acid]

CLblood (calculated blood clearance, well-stirred) [1]: 12.8 mL/min/kg | Fmax (maximum possible bioavailability after oral administration, well-stirred) [1]: 81.8%
Compound: Cc1ccc2nnn(C[C@H]3CC[C@@H](C(=O)c4ccc(OCCC5CCOCC5)cc4)[C@@H]3C(=O)O)c(=O)c2c1 (racemic) [Example 20, (+)-(1RS,2SR,5RS)-2-[(6-Methyl-4-oxo-1,2,3-benzotriazin-3(4H)-yl)methyl]-5-{4-[2-(tetrahydro-2H-pyran-4-yl)ethoxy]benzoyl}cyclopentanecarboxylic acid]

pIC50 [2]: 8.00 | solubility at 24 h [3]: 80 µg/mL (≈ 139 µM)
Compound: O=C(O)[C@@H]1[C@@H](Cn2nnc3ccc(C(F)(F)F)cc3c2=O)CC[C@H]1C(=O)c1ccc(SCC2CCOCC2)cc1 (single isomer, unassigned) [Example 14, (−)-(1RS,2SR,5RS)-2-{[4-Oxo-6-(trifluoromethyl)-1,2,3-benzotriazin-3(4H)-yl]methyl}-5-{4-[(tetrahydro-2H-pyran-4-ylmethyl)sulphanyl]benzoyl}cyclopentanecarboxylic acid]

pIC50 [2]: 7.11
Compound: Cc1ccc2nnn(C[C@H]3CC[C@@H](C(=O)c4ccc(OCCC5CCOCC5)cc4)[C@@H]3C(=O)O)c(=O)c2c1 (single isomer, unassigned) [Example 21, (−)-(1RS,2SR,5RS)-2-[(6-Methyl-4-oxo-1,2,3-benzotriazin-3(4H)-yl)methyl]-5-{4-[2-(tetrahydro-2H-pyran-4-yl)ethoxy]benzoyl}cyclopentanecarboxylic acid]

pIC50 [2]: 7.05 | Solubility [3]: 240 µg/mL (≈ 418 µM)
Compound: O=C(O)[C@@H]1[C@@H](Cn2nnc3ccc(C(F)(F)F)cc3c2=O)CC[C@H]1C(=O)c1ccc(OCCC2CCOCC2)cc1 (stereo in doubt) [Example 12, (−)-(1RS,2SR,5RS)-2-{[4-Oxo-6-(trifluoromethyl)-1,2,3-benzotriazin-3(4H)-yl]methyl}-5-{4-[2-(tetrahydro-2H-pyran-4-yl)ethoxy]benzoyl}cyclopentanecarboxylic acid]
